Read-outs that look alike come from different tables or passages of the source. Some results are limits rather than exact numbers.

Usually IC50 stands for the concentration that gives 50% inhibition.

In assay [1] the test system is H61 cells: NIH transformed 3T3 H-ras cells. Nature of the assay: Clonogenic assay (6 well plates, soft agar). The assay is classed as cell-based. To be noted: colonies counted after Day 13, read-out: Clonogenic Assay IC50. On the procedure:
Clonoaenic Assay (6 well lates)
Sometime previous to setting up an actual test:
1. Make up 1.5% Bacto Agar in Milli-Q water and autoclave.
2. Make up 500 mL 2× DMEM-HG without phenol red by combining the following:
1 bottle DMEM base powder (Sigma D-5030)
Adjust pH to 7.1 with HCL; filter sterilize.
1. Set up makeshift water bath (beaker of water with thermometer, on hot plate) in the hood. Keep water temperature between 37° C. to 43° C.
2. […] 1.5% Bacto Agar for approximately 2 minutes on high, or until completely melted. Then let it cool somewhat before using it. (You can keep it from resolidifying by setting the bottle on the hot plate.) […]
3. Bottom Layer (0.6% agar) Top Layer (0.3% agar)
20% calf serum 20% calf serum
40% Bacto Agar (1.5%) 20% Bacto Agar (1.5%)
Depending on the volume of each layer needed, use either 50 mL conical tubes or 200 mL turnip tubes which can be floated in the "water bath".
4. Add 1 mL of bottom layer agar/medium to each well: deliver 1 mL warm agar/medium to a well; then using the tip of the pipet, spread the agar/medium around to completely cover the bottom. Repeat with next well.
5. Allow the plates to set at room temperature for about 5 minutes until the bottom layer solidifies.
6. Label sterile Falcon 2054 (12×75 mm) tubes and add appropriate volume of drug solutions into them.
7. Aliquot 4 AL of DMSO or drug solution per 1 mL of agar/medium to appropriate tubes; then add the agar/medium/cells to each tube. Always add 1 mL more than will actually be needed. Mix up and down in the pipet (gently); then deliver 1 mL to the center of each well. The upper layer is less viscous, so it will generally spread out over the bottom layer unaided. If necessary, rotate the plane of the plate gently to spread the top layer evenly over the bottom layer.
8. Let plates set for 5 or 10 minutes at room temperature to solidify, then put into 5% CO2, 37° C. incubator.
9. On Day 13, add 0.5 mL of INT (tetrazolium 1 mg/mL in Milli-Q H2 O, filter sterilized) and return plates to incubator.

For assay [2], the system named is ras farnesylation in ras-transformed cells. Nature of the assay: Gel shift assay. The assay is classed as cell-based. Conditions: ras-transformed cells, 18-hour incubation; read-out: Gel Shift (μM) MED (minimal effective dose to observe inhibition of ras farnesylation). The method, boiled down:
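Ras-transformed cells (2×10^6 per condition) treated with farnesylation inhibitor at varying concentrations for 18 h. Ras immunoprecipitated from lysates with Y13-259, resolved on 14% SDS gels and detected by pan-ras Western blot with ECL, farnesylated and unfarnesylated ras separating by mobility shift.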

Assay [3] concerns the target T1, SF9 affinity purified rat farnesyl protein transferase (Rattus norvegicus, UniProt Q02293+Q04631).
T1 construct: made in house; host or cells: Sf9 insect cells (baculovirus system inferred from b7)
Nature of the assay: PFT inhibitory activity (radiolabeled farnesyl pyrophosphate, streptavidin bead assay). The assay is classed as biochemical. Summed up: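 HEPES pH 7.4 with 5 mM potassium phosphate (also run without), 20 μM ZnCl2, 5 mM DTT, 5 mM MgCl2, 0.1% PEG 8000; [3H]farnesyl pyrophosphate 134 nM and biotinyl-Ahe-TKCVIM peptide 0.2 μM final. Incubated 30 min at 30° C, stopped with acidic magnesium acetate/streptavidin bead buffer; bead-bound radioactivity counted.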

Where [4] appears, read: HEPES buffer pH 7.4, without 5 mM potassium phosphate, read-out: IC50 (μM) Hepes.
Setting [5] is: HEPES buffer pH 7.4 containing 5 mM potassium phosphate, read-out: IC50 (μM) 5 mM K3 PO4 -2.
The mark [6] stands for this setting: with 5 mM potassium phosphate, average obtained by additional tests, read-out: IC50 (μM) 5 mM K3 PO4 -2, number in parentheses.
Setting [7] is: without 5 mM potassium phosphate, average obtained by additional tests, read-out: IC50 (μM) Hepes, number in parentheses.

T1 sequence (Q02293 whole entry, one chain of several): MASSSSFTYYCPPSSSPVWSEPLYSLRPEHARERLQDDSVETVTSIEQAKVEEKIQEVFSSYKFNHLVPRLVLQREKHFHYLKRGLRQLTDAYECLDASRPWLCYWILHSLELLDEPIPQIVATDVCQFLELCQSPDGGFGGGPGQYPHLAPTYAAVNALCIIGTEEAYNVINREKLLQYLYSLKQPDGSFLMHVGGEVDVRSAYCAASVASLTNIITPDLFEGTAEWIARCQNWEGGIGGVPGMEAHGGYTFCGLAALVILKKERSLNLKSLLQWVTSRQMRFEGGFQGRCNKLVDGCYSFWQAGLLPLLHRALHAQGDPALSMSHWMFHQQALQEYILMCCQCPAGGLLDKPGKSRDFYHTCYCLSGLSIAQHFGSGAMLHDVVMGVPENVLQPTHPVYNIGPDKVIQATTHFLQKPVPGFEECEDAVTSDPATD

Regarding `N#CC(CNC(=O)CN(Cc1ccc(OCc2ccccc2)cc1)C(=O)[C@H](Cc1c[nH]cn1)NC(=O)OCc1ccccc1)c1ccccc1` (some centres unmarked) [Example 45], the results for the IC50 in assay [1], in assay [3] (setting [4]) and in assay [3] (setting [5]) were 140 nM, 0.35 µM and 0.0024 µM, respectively. Moreover, the minimal effective concentration in assay [2] came to 0.05 µM.
As for `C[C@@H](Cc1ccccc1)NC(=O)CN(Cc1ccc(OCc2ccccc2)cc1)C(=O)[C@H](Cc1c[nH]cn1)NC(=O)OCc1ccccc1` [Example 11], the figures for the IC50 in assay [1], in assay [3] (setting [4]) and in assay [3] (setting [5]) were more than 1000 nM, 2.5 µM and 0.082 µM, respectively. The minimal effective concentration in assay [2] is given as 0.2 µM.
For `CC(CNC(=O)CN(Cc1ccc(OCc2cccnc2)cc1)C(=O)[C@H](Cc1c[nH]cn1)NC(=O)OCc1ccccc1)c1ccccc1` (stereo partly drawn) [Example 36, (S)-(2-(1H-Imidazole-4-yl)-1-{[(2-phenyl-propylcarbamoyl)-methyl]-[4-(pyridin-3-ylmethoxy)-benzyl]-carbamoyl}-ethyl)-carbamic Acid Benzyl Ester], the results for the IC50 in assay [1] (312 h), in assay [3] (setting [4]) and in assay [3] (setting [5]) were 320 nM, 0.45 µM and 0.007 µM, respectively. For the same compound, the minimal effective concentration in assay [2] was not below 0.05 µM.
The matching figures for `CCC(CC)(CNC(=O)CN(Cc1ccc(OCc2ccccc2)cc1)C(=O)[C@H](Cc1cnc[nH]1)NC(=O)OCc1ccccc1)c1ccccc1` [Example 25, (S)-[1-{(4-Benzyloxy-benzyl)-[(2-ethyl-2-phenyl-butylcarbamoyl)-methyl]-carbamoyl}-2-(3H-imidazole-4-yl)-ethyl]-carbamic Acid Benzyl Ester]: 890 nM, 0.93 µM, 0.032 µM and 0.2 µM.
Regarding `CC(CNC(=O)CN(Cc1ccc(OCc2ccccc2)cc1)C(=O)[C@H](Cc1c[nH]cn1)NC(=O)NCc1ccccc1)c1ccccc1` (stereo partly drawn) [Example 6, (S)-N-(4-Benzyloxy-benzyl)-2-(3-benzyl-ureido)-3-(1H-imidazole-4-yl)-N-[(2-phenyl-propylcarbamoyl)-methyl]-propionamide], the IC50 in assay [1] (312 h) is more than 1000 nM; in assay [3] (setting [4]), 0.2 µM; in assay [3] (setting [5]), 0.0022 µM; in assay [3] (setting [6]) it was 0.017 µM; in assay [3] (setting [7]) it was 0.5 µM. Besides, the minimal effective concentration in assay [2] amounted to 0.2 µM.
Turning to `COc1ccc(CN(CC(=O)NCC(C)c2ccccc2)C(=O)[C@H](Cc2c[nH]cn2)NC(=O)OCc2ccccc2)cc1` (stereo partly drawn) [Example 20, (S)-(2-(1H-Imidazole-4-yl)-1-{(4-methoxy-benzyl)-[(2-phenyl-propylcarbamoyl)-methyl]-carbamoyl}-ethyl)-carbamic Acid Benzyl Ester], the IC50 was 460 nM in assay [1] (312 h), 1.5 µM in assay [3] (setting [4]) and 0.017 µM in assay [3] (setting [5]). In assay [2], the minimal effective concentration is 0.05 µM.
Regarding `O=C(CN(Cc1ccc(Cl)cc1)C(=O)[C@H](Cc1c[nH]cn1)NC(=O)OCc1ccccc1)NCCOCc1ccccc1` [Example 3], the IC50 in assay [1] was more than 1000 nM; in assay [3] (setting [4]), 3.1 µM; in assay [3] (setting [5]), 0.97 µM; in assay [3] (setting [6]), 0.61 µM; in assay [3] (setting [7]), 2.8 µM. Moreover, the minimal effective concentration in assay [2] stood at 0.25 µM.
As to `CC(C)(CNC(=O)CN(Cc1ccc(OCc2cccnc2)cc1)C(=O)[C@H](Cc1c[nH]cn1)NC(=O)OCc1ccccc1)c1ccccc1` [Example 50, (S)-(2-(1H-Imidazole-4-yl)-1-{[(2-methyl-2-phenyl-propylcarbamoyl)-methyl]-[4-(pyridin-3-ylmethoxy)-benzyl]-carbamoyl}-ethyl)-carbamic Acid Benzyl Ester], the IC50 in assay [1] (312 h) was 270 nM; in assay [3] (setting [4]), 0.089 µM; in assay [3] (setting [5]), 0.001 µM. Further, the minimal effective concentration in assay [2] was 0.05 µM.
On to `Cc1ccc(CN(CC(=O)NCC(C)c2ccccc2)C(=O)[C@H](Cc2c[nH]cn2)NC(=O)OCc2ccccc2)cc1` (stereo partly drawn) [Example 19, (S)-(2-(1H-Imidazole-4-yl)-1-{(4-methyl-benzyl)-[(2-phenyl-propylcarbamoyl)-methyl]-carbamoyl}-ethyl)-carbamic Acid Benzyl Ester], for which the IC50 in assay [1] (312 h) worked out at 660 nM; in assay [3] (setting [4]), 1.26 µM; in assay [3] (setting [5]), 0.015 µM. Also, the minimal effective concentration in assay [2] came out at 0.05 µM.
In the case of `O=C(CN(Cc1ccc(OCc2ccccc2)cc1)C(=O)[C@H](Cc1c[nH]cn1)NC(=O)OCc1ccccc1)NCCc1ccccc1Cl` [Example 53], the concentration for half-maximal inhibition (IC50) is 12400 nM in assay [1], 10.6 µM in assay [3] (setting [4]) and 0.12 µM in assay [3] (setting [5]). Moreover, in assay [2], the minimal effective concentration turned out to be 0.2 µM.
`O=C(CN(Cc1ccc(OCc2ccccc2)cc1)C(=O)[C@H](Cc1c[nH]cn1)NC(=O)OCc1ccccc1)NCCc1ccccc1Br` [Example 9, (S)-[1-((4-Benzyloxy-benzyl)-{[2-(2-bromo-phenyl)-ethylcarbamoyl]-methyl}-carbamoyl)-2-(1H-imidazole-4-yl)-ethyl]-carbamic Acid Benzyl Ester]: the figures for the IC50 in assay [1] (312 h), in assay [3] (setting [4]) and in assay [3] (setting [5]) were more than 1000 nM, 4.5 µM and 0.36 µM, respectively. Moreover, the minimal effective concentration in assay [2] came out at 0.2 µM.
Turning to `CC(CNC(=O)CN(Cc1ccc(Cl)cc1)C(=O)[C@H](Cc1c[nH]cn1)NC(=O)OCc1ccccc1)c1ccccc1` (stereo partly drawn) [Example 13, (S)-[1-{(4-Chloro-benzyl)-[(2-phenyl-propylcarbamoyl)-methyl]-carbamoyl}-2-(1H-imidazole-4-yl)-ethyl]-carbamic Acid Benzyl Ester], the IC50 in assay [1] (312 h) is more than 1000 nM; in assay [3] (setting [4]) it was 1.4 µM; in assay [3] (setting [5]) it was 0.022 µM. Moreover, the minimal effective concentration in assay [2] stood at 0.2 µM.
In the case of `CC(CNC(=O)CN(Cc1ccccc1Cl)C(=O)[C@H](Cc1c[nH]cn1)NC(=O)OCc1ccccc1)c1ccccc1` (stereo partly drawn) [Example 28, (S)-[1-{(2-Chloro-benzyl)-[(2-phenyl-propylcarbamoyl)-methyl]-carbamoyl}-2-(1H-imidazole-4-yl)-ethyl]-carbamic Acid Benzyl Ester], the IC50 in assay [1] (312 h) was determined as 600 nM; in assay [3] (setting [4]), 2.6 µM; in assay [3] (setting [5]) it was 0.043 µM. For the same compound, the minimal effective concentration in assay [2] amounted to 0.2 µM.
Take `CC(C)(CNC(=O)CN(Cc1ccccc1)C(=O)[C@H](Cc1c[nH]cn1)NC(=O)OCc1ccccc1)c1ccccc1` [Example 42, (S)-[1-{Benzyl-[(2-methyl-2-phenyl-propylcarbamoyl)-methyl]-carbamoyl}-2-(1H-imidazole-4-yl)-ethyl]-carbamic Acid Benzyl Ester]: the IC50 turned out to be 510 nM in assay [1] (312 h), 0.6 µM in assay [3] (setting [4]) and 0.005 µM in assay [3] (setting [5]). Besides, in assay [2], the minimal effective concentration came to 0.05 µM.
With `CC(CNC(=O)CN(Cc1ccc(OCc2ccccc2)cc1)C(=O)[C@H](Cc1c[nH]cn1)NC(=O)OCc1ccccc1)c1ccccc1Cl` (stereo partly drawn) [Example 32, (S)-[1-((4-Benzyloxy-benzyl)-{[2-(2-chloro-phenyl)-propylcarbamoyl]-methyl}-carbamoyl)-2-(1H-imidazole-4-yl)-ethyl]-carbamic Acid Benzyl Ester], the IC50 amounted to 360 nM in assay [1] (312 h), 0.32 µM in assay [3] (setting [4]) and 0.007 µM in assay [3] (setting [5]). For the same compound, in assay [2], the minimal effective concentration was 0.05 µM.
Turning to `Cc1ccccc1CN(CC(=O)NCC(C)c1ccccc1)C(=O)[C@H](Cc1c[nH]cn1)NC(=O)OCc1ccccc1` (some centres unmarked) [Example 43], the IC50 in assay [1] was more than 1000 nM; in assay [3] (setting [4]), 3.9 µM; in assay [3] (setting [5]), 0.038 µM. Moreover, in assay [2], the minimal effective concentration came out at 0.2 µM.

For the origin of these results see patent US6300501A, “Histidine-(N-benzyl glycinamide) inhibitors of protein farnesyl transferase” (Warner-Lambert Company, priority 1998, dated 2001).
